Results on 6 compounds are retold here after patent publication US20060003023A1, “Microbicidal composition” (priority 2004, published 2006).

Several values for one entry are separate records, joined by “and”; a condition that tells them apart may be missing. Equal values may be shown once.

Experiment [1] relates to Pseudomonas aeruginosa (ATCC 15442). The experiment is described as follows: High resolution MBC combination test (minimum biocidal concentration), recovery in Trypticase Soy Broth plus thioglycolate.
Experiment [2] has the same test system. The experiment is described as follows: High resolution MIC combination test (minimum inhibitory concentration), 96-well microtiter plate, mineral salts medium with 2% glucose.
Excerpt: When the sum of Qa/QA and Qb/QB is greater than one, antagonism is indicated. […] The lower the SI, the greater the synergy shown by that particular mixture. The minimum inhibitory concentration (MIC) of a microbicide is the lowest concentration tested under a specific set of conditions that prevents the growth of added microorganisms.
The tests were set up with 96-well microtiter plate using the Biomek™ 2000 Workstation employing a high resolution MIC/MBC combination test method, which provides multiple combinations of two biocides in one test plate. […] Samples (10 μl) taken from each well of the MIC plate were transferred to fresh media in the MBC plates and observed for the presence of surviving (viable) microorganisms over time. […] The synergistic ratio range of the biocide combination is a reflection of the total activity of both inhibition (MIC) and killing MBC).
Each well received 20 μl of a 24-hour pure culture suspension of Pseudomonas aeruginosa (ATCC 15442) at a final density of 106 colony forming units (CFU) per ml. Cell density was adjusted to an optical density of 0.09 at 660 nm using a spectrophotometer.
Tests were set up in duplicate with different starting concentrations of biocides to increase the number of possible combinations displaying antimicrobial activity.
All biocide results are reported on an active ingredient basis in ppm (parts per million).

`CC1(C)C(=O)N(Br)C(=O)N1Cl` [BCDMH, 3-Bromo-1-chloro-5,5-dimethylhydantoin]: the A alone in experiment [1] (MBC of BCDMH alone, Day 1, Expt MBC 1) was determined as 6.25 ppm total oxidant; in experiment [1] (MBC of BCDMH alone, Day 1, Expt MBC 2) it was 6.25 ppm total oxidant; in experiment [1] (MBC of BCDMH alone, Day 3, Expt MBC 2), 6.25 ppm total oxidant; in experiment [2] (MIC of BCDMH alone, Day 1, Expt MIC 1), 3.13 ppm total oxidant; in experiment [2] (MIC of BCDMH alone, Day 1, Expt MIC 2) it was 3.13 ppm total oxidant; in experiment [2] (MIC of BCDMH alone, Day 3, Expt MIC 1), 6.25 ppm total oxidant. For the same compound, the A alone in experiment [2] (MIC of BCDMH alone, Day 3, Expt MIC 2) was found to be 6.25 ppm total oxidant; in experiment [2] (MIC of BCDMH alone, Day 5, Expt MIC 1) it was 6.25 ppm total oxidant; in experiment [2] (MIC of BCDMH alone, Day 5, Expt MIC 2), 6.25 ppm total oxidant.
Turning to `O=c1[nH]sc2ccccc12` [BIT, 1,2-Benzisothiazolin-3-one], the A alone in experiment [1] (BIT alone, ppm active ingredient, day 1, MBC 2) was determined as 100.00 ppm; in experiment [2], 25.00 ppm; in experiment [2] (BIT alone, ppm active ingredient, day 1, MIC 2), 50.00 ppm; in experiment [2] (BIT alone, ppm active ingredient, day 3, MIC 2), 100.00 ppm. In addition, the a/A in experiment [1] (BIT comb./alone, day 1, MBC 2) was 0.50; in experiment [2] (BIT comb./alone, day 1, MIC 1), 0.01; in experiment [2] (BIT comb./alone, day 1, MIC 2), 0.50 and 0.25; in experiment [2] (BIT comb./alone, day 3, MIC 2), 0.50. Besides, the a comb. in experiment [1] (BIT combined with stabilized hypochlorite and bromide, ppm active ingredient, day 1, MBC 2) is 50.00 ppm; in experiment [2] (BIT combined with stabilized hypochlorite and bromide, ppm active ingredient, day 1, MIC 2) it was 25.00 ppm and 12.50 ppm; in experiment [2] (BIT combined with stabilized hypochlorite and bromide, ppm active ingredient, day 3, MIC 2) it was 50.00 ppm.
Regarding `N#CC(Br)(Br)C(N)=O` [DBNPA, 2,2-Dibromo-nitrilo-propionamide], the A alone in experiment [1] (DBNPA alone, ppm active ingredient, day 1, MBC 1) was 12.50 ppm; in experiment [2] (DBNPA alone, ppm active ingredient, day 1, MIC 1) it was 6.25 ppm; in experiment [2] (DBNPA alone, ppm active ingredient, day 1, MIC 2) it was 6.25 ppm; in experiment [2] (DBNPA alone, ppm active ingredient, day 5, MIC 1) it was 12.50 ppm and 6.25 ppm; in experiment [2] (DBNPA alone, ppm active ingredient, day 5, MIC 2), 12.50 ppm. The a/A was 0.50 in experiment [1] (DBNPA comb./alone, day 1, MBC 1); 0.32 and 0.50 in experiment [2] (DBNPA comb./alone, day 5, MIC 1); 0.32 in experiment [2] (DBNPA comb./alone, day 5, MIC 2). For the same compound, the a comb. in experiment [1] (DBNPA combined with stabilized hypochlorite and bromide, ppm active ingredient, day 1, MBC 1) was 6.25 ppm; in experiment [2] (DBNPA combined with stabilized hypochlorite and bromide, ppm active ingredient, day 1, MIC 1), 1.56 ppm and 0.78 ppm; in experiment [2] (DBNPA combined with stabilized hypochlorite and bromide, ppm active ingredient, day 5, MIC 1), 4.00 ppm and 3.13 ppm; in experiment [2] (DBNPA combined with stabilized hypochlorite and bromide, ppm active ingredient, day 5, MIC 2), 4.00 ppm.
`CCCCCCCCn1sc(Cl)c(Cl)c1=O` [DCOIT, 4,5-Dichloro-2-n-octyl-4-isothiazolin-3-one]: the “A alone (MBC)” value in experiment [1] (Day 1, MBC 1) was found to be 10.00 ppm active ingredient; in experiment [1] (Day 1, MBC 2), 10.00 ppm active ingredient. The “A alone (MIC)” value in experiment [2] (Day 1, MIC 1) was 2.50 ppm active ingredient; in experiment [2] (Day 1, MIC 2) it was 2.50 ppm active ingredient; in experiment [2] (Day 3, MIC 1) it was 5.00 ppm active ingredient and 10.00 ppm active ingredient; in experiment [2] (Day 3, MIC 2) it was 10.00 ppm active ingredient and 5.00 ppm active ingredient; in experiment [2] (Day 5, MIC 1) it was 5.00 ppm active ingredient; in experiment [2] (Day 5, MIC 2) it was 10.00 ppm active ingredient.
`O=CCCCC=O` [GLUT, Pentane-1,5-dial]: the A alone in experiment [1] (glutaraldehyde alone, ppm active ingredient, day 1, MBC 1) amounted to 25.00 ppm; in experiment [1] (glutaraldehyde alone, ppm active ingredient, day 1, MBC 2) it was 25.00 ppm; in experiment [1] (glutaraldehyde alone, ppm active ingredient, day 3, MBC 2), 50.00 ppm; in experiment [2] (glutaraldehyde alone, ppm active ingredient, day 1, MIC 1), 25.00 ppm; in experiment [2] (glutaraldehyde alone, ppm active ingredient, day 1, MIC 2), 25.00 ppm; in experiment [2] (glutaraldehyde alone, ppm active ingredient, day 3, MIC 1), 25.00 ppm. The A alone in experiment [2] (glutaraldehyde alone, ppm active ingredient, day 3, MIC 2) is 50.00 ppm; in experiment [2] (glutaraldehyde alone, ppm active ingredient, day 5, MIC 1) it was 25.00 ppm; in experiment [2] (glutaraldehyde alone, ppm active ingredient, day 5, MIC 2) it was 50.00 ppm. For the same compound, the a/A turned out to be 0.50 in experiment [1] (glutaraldehyde comb./alone, day 1, MBC 1); 0.50 in experiment [1] (glutaraldehyde comb./alone, day 1, MBC 2); 0.50 in experiment [1] (glutaraldehyde comb./alone, day 3, MBC 2); 0.50 in experiment [2] (glutaraldehyde comb./alone, day 1, MIC 1); 0.50 in experiment [2] (glutaraldehyde comb./alone, day 1, MIC 2); 0.50 in experiment [2] (glutaraldehyde comb./alone, day 3, MIC 1). For the same compound, the a/A is 0.50 in experiment [2] (glutaraldehyde comb./alone, day 3, MIC 2); 0.50 in experiment [2] (glutaraldehyde comb./alone, day 5, MIC 1); 0.50 in experiment [2] (glutaraldehyde comb./alone, day 5, MIC 2). The a comb. in experiment [1] (glutaraldehyde combined with stabilized hypochlorite and bromide, ppm active ingredient, day 1, MBC 1) worked out at 12.50 ppm; in experiment [1] (glutaraldehyde combined with stabilized hypochlorite and bromide, ppm active ingredient, day 1, MBC 2), 12.50 ppm; in experiment [1] (glutaraldehyde combined with stabilized hypochlorite and bromide, ppm active ingredient, day 3, MBC 2) it was 25.00 ppm; in experiment [2] (glutaraldehyde combined with stabilized hypochlorite and bromide, ppm active ingredient, day 1, MIC 1), 12.50 ppm; in experiment [2] (glutaraldehyde combined with stabilized hypochlorite and bromide, ppm active ingredient, day 1, MIC 2) it was 12.50 ppm; in experiment [2] (glutaraldehyde combined with stabilized hypochlorite and bromide, ppm active ingredient, day 3, MIC 1), 12.50 ppm. Also, the a comb. amounted to 25.00 ppm in experiment [2] (glutaraldehyde combined with stabilized hypochlorite and bromide, ppm active ingredient, day 3, MIC 2); 12.50 ppm in experiment [2] (glutaraldehyde combined with stabilized hypochlorite and bromide, ppm active ingredient, day 5, MIC 1); 25.00 ppm in experiment [2] (glutaraldehyde combined with stabilized hypochlorite and bromide, ppm active ingredient, day 5, MIC 2).
With “Alkyl*dimethyl benzyl ammonium chloride [ADBAC]”, the “A alone (MBC)” value in experiment [1] (Day 3, MBC 1) is listed as 50.00 ppm active ingredient; in experiment [1] (Day 3, MBC 2) it was 50.00 ppm active ingredient. The “A alone (MIC)” value in experiment [2] (Day 1, MIC 1) was determined as 12.50 ppm active ingredient; in experiment [2] (Day 3, MIC 2), 50.00 ppm active ingredient.
